Laboratory results from patent US20060058312A1, “Stabilized aqueous preparation for injection” (priority 2004, published 2006).

Assays:
Assay type in all cases: physicochemical
[1] = Stability test at 60° C., addition amount of ascorbic acid at pH 8.1 (Example 4), HPLC content; conditions: for remaining calcium levofolinate content compared with the initial value (100): 60° C.
Method: (§1) For the aqueous preparations obtained in (1) to (3) above, tests evaluating stability at 60° C./3 weeks were performed. The calcium levofolinate content remaining in the aqueous solution was measured using high performance liquid chromatography under the following conditions (the same were employed in the following experiments) 2 ml each of the test preparations were weighed, and 10 ml of the internal standard solution described below (the same was employed in the following experiments) were added thereto. Subsequently, water was added to adjust the total volume of the solution to 50 ml, thereby to prepare a test solution. Meanwhile, 62.5 mg of calcium levofolinate were dissolved in water so as to prepare a 25 ml solution. Then, to 10 ml of the resultant solution were added 10 ml of the internal standard solution, and the total volume of the solution was adjusted to 50 ml by adding water, thereby to prepare a standard solution. For 20 μl of the standard solution and the test solution, the content of calcium levofolinate was measured by the liquid chromatography method under the following conditions.
(§2) 1) Measurement Conditions • Detector: Ultraviolet absorptiometer (Measurement wavelength: 254 nm) • Column: A stainless tube having an internal diameter of 4.0 mm and a length of 15 cm was filled with 5 μm of octadecylsilylated silica gel for liquid chromatography. • Column temperature: A constant temperature near 45° C. • Mobile phase: The pH value of a mixed test solution containing 0.008 mol/L of disodium hydrogen phosphate solution/methanol/40% aqueous tetrabutylammonium hydroxide solution (385:110:1.3 (volume ratio)) was adjusted to 7.5 by adding phosphoric acid. • Flow rate: The flow rate was regulated so that the retention time of calcium levofolinate became about 10 minutes. • Internal standard solution: A solution prepared by adding water to 0.04 g of methyl parahydroxybenzoate so that the whole amount of solution is 100 ml.
About 80 ml of water for injection were added to a beaker (volume: 200 ml). Then 0.56 g of sodium chloride, 0.3 g of tromethamine, and 1.375 g of calcium levofolinate (1.1 g, in terms of 5-formyl-(6S)-tetrahydrofolic acid) were added to it with bubbling of nitrogen gas, and the components were dissolved with stirring (this procedure was performed […]). Subsequently, 0 (no addition), 0.05 g, 0.1 g, 0.3 g, 0.5 g or 1.0 g of ascorbic acid was added to each solution, and was dissolved with stirring, to prepare six solutions. Thereafter, in the case where the addition amount of ascorbic acid is 0 (no addition), 0.05 g, or 0.1 g, the pH value of each solution was adjusted to 8.1 by adding 5% hydrochloric acid dropwise. In the case where the addition amount of ascorbic acid is 0.3 g, 0.5 g, or 1.0 g, the pH value of each solution was adjusted to 8.1 by adding 1% aqueous sodium hydroxide solution dropwise. Water for injection was further added to each solution to adjust the total volume of the solution to 100 ml. Subsequently, the bubbling of nitrogen gas was stopped, and each solution was filtered with a filtration filter, thereby to yield a solution for injection. Subsequently, each of five 5 ml-glass ampules the inside space of which had been substituted by nitrogen gas, was filled with 5 ml of the resultant solution for injection, and it was sealed by heating.
(§3) For each aqueous preparation obtained as above, a test evaluating stability at 60° C. was performed by measuring the remaining calcium levofolinate content by the high performance liquid chromatography method.

[2] = Stability test at 60° C., addition amount of ascorbic acid at pH 8.7 (Example 5), HPLC content; conditions: for remaining calcium levofolinate content compared with the initial value (100): 60° C.
Method: as §1, §2
About 80 ml of water for injection were added to a beaker (volume: 200 ml). Then, 0.56 g of sodium chloride, 0.3 g of tromethamine, and 1.375 g of calcium levofolinate (1.1 g, in terms of 5-formyl-(6S)-tetrahydrofolic acid) were added to it with bubbling of nitrogen gas, and the components were dissolved with stirring (this procedure was performed 5 times). Subsequently, 0.05 g, 0.075 g, 0.1 g, 0.2 g, or 0.3 g of ascorbic acid was added to each solution, and was dissolved with stirring, to prepare five solutions. Thereafter, in the case where the addition amount of ascorbic acid is 0.05 g, 0.075 g, or 0.1 g, the pH value of each solution was regulated to 8.7 by adding 5% hydrochloric acid. In the case where the addition amount of ascorbic acid is 0.2 g, or 0.3 g, the pH value of each solution was regulated to 8.7 by adding 1% aqueous sodium hydroxide solution dropwise. Water for injection was further added to each solution to adjust the total volume of the solution to 100 ml. Subsequently, the bubbling of nitrogen gas was stopped, and each solution was filtered with a filtration filter, thereby to yield a solution for injection. Subsequently, each of five 5 ml-glass ampules the inside space of which had been substituted by nitrogen gas, was filled with 5 ml of the resultant solution for injection, and was sealed by heating.
as §3

[3] = Change of pH value of the aqueous solution during storage; conditions: aqueous solution adjusted to pH 6 to 7

## Nc1nc(=O)c2c([nH]1)NC[C@H](CNc1ccc(C(=O)N[C@@H](CCC(=O)O)C(=O)O)cc1)N2C=O [calcium levofolinate, (6S)-N-[4-[[(2-amino-5-formyl-1,4,5,6,7,8-hexahydro-4-oxo-6-pteridinyl)methyl]amino]benzoyl]-L-glutamic acid]
[1]; ascorbic acid 0% (No addition), 1 month
  remaining calcium levofolinate content compared with the initial value (100): 79.7
[1]; ascorbic acid 0% (No addition), 1 week
  remaining calcium levofolinate content compared with the initial value (100): 94.1
[1]; ascorbic acid 0% (No addition), 2 weeks
  remaining calcium levofolinate content compared with the initial value (100): 88.7
[1]; ascorbic acid 0% (No addition), 3 weeks
  remaining calcium levofolinate content compared with the initial value (100): 86.0
[1]; ascorbic acid 0% (No addition)
  calcium levofolinate content, Initial value (100): 100
[1]; ascorbic acid 0.05%, 1 month
  remaining calcium levofolinate content compared with the initial value (100): 82.6
[1]; ascorbic acid 0.05%, 1 week
  remaining calcium levofolinate content compared with the initial value (100): 96.4
[1]; ascorbic acid 0.05%, 2 weeks
  remaining calcium levofolinate content compared with the initial value (100): 92.4
[1]; ascorbic acid 0.05%, 3 weeks
  remaining calcium levofolinate content compared with the initial value (100): 87.3
[1]; ascorbic acid 0.05%
  calcium levofolinate content, Initial value (100): 100
[1]; ascorbic acid 0.1%, 1 month
  remaining calcium levofolinate content compared with the initial value (100): 82.2
[1]; ascorbic acid 0.1%, 1 week
  remaining calcium levofolinate content compared with the initial value (100): 97.4
[1]; ascorbic acid 0.1%, 2 weeks
  remaining calcium levofolinate content compared with the initial value (100): 93.1
[1]; ascorbic acid 0.1%, 3 weeks
  remaining calcium levofolinate content compared with the initial value (100): 87.7
[1]; ascorbic acid 0.1%
  calcium levofolinate content, Initial value (100): 100
[1]; ascorbic acid 0.3%, 1 month
  remaining calcium levofolinate content compared with the initial value (100): 81.6
[1]; ascorbic acid 0.3%, 1 week
  remaining calcium levofolinate content compared with the initial value (100): 96.3
[1]; ascorbic acid 0.3%, 2 weeks
  remaining calcium levofolinate content compared with the initial value (100): 91.3
[1]; ascorbic acid 0.3%, 3 weeks
  remaining calcium levofolinate content compared with the initial value (100): 86.9
[1]; ascorbic acid 0.3%
  calcium levofolinate content, Initial value (100): 100
[1]; ascorbic acid 0.5%, 1 month
  remaining calcium levofolinate content compared with the initial value (100): 80.9
[1]; ascorbic acid 0.5%, 1 week
  remaining calcium levofolinate content compared with the initial value (100): 96.5
[1]; ascorbic acid 0.5%, 2 weeks
  remaining calcium levofolinate content compared with the initial value (100): 90.9
[1]; ascorbic acid 0.5%, 3 weeks
  remaining calcium levofolinate content compared with the initial value (100): 86.0
[1]; ascorbic acid 0.5%
  calcium levofolinate content, Initial value (100): 100
[1]; ascorbic acid 1.0%, 1 month
  remaining calcium levofolinate content compared with the initial value (100): 80.3
[1]; ascorbic acid 1.0%, 1 week
  remaining calcium levofolinate content compared with the initial value (100): 95.4
[1]; ascorbic acid 1.0%, 2 weeks
  remaining calcium levofolinate content compared with the initial value (100): 89.8
[1]; ascorbic acid 1.0%, 3 weeks
  remaining calcium levofolinate content compared with the initial value (100): 84.1
[1]; ascorbic acid 1.0%
  calcium levofolinate content, Initial value (100): 100
[2]; ascorbic acid 0.05%, 1 month
  remaining calcium levofolinate content compared with the initial value (100): 84.5
[2]; ascorbic acid 0.05%, 1 week
  remaining calcium levofolinate content compared with the initial value (100): 97.0
[2]; ascorbic acid 0.05%, 2 weeks
  remaining calcium levofolinate content compared with the initial value (100): 92.1
[2]; ascorbic acid 0.05%, 3 weeks
  remaining calcium levofolinate content compared with the initial value (100): 90.3
[2]; ascorbic acid 0.05%
  calcium levofolinate content, Initial value (100): 100
[2]; ascorbic acid 0.075%, 1 month
  remaining calcium levofolinate content compared with the initial value (100): 85.7
[2]; ascorbic acid 0.075%, 1 week
  remaining calcium levofolinate content compared with the initial value (100): 97.1
[2]; ascorbic acid 0.075%, 2 weeks
  remaining calcium levofolinate content compared with the initial value (100): 91.5
[2]; ascorbic acid 0.075%, 3 weeks
  remaining calcium levofolinate content compared with the initial value (100): 90.9
[2]; ascorbic acid 0.075%
  calcium levofolinate content, Initial value (100): 100
[2]; ascorbic acid 0.1%, 1 month
  remaining calcium levofolinate content compared with the initial value (100): 84.9
[2]; ascorbic acid 0.1%, 1 week
  remaining calcium levofolinate content compared with the initial value (100): 97.3
[2]; ascorbic acid 0.1%, 2 weeks
  remaining calcium levofolinate content compared with the initial value (100): 92.2
[2]; ascorbic acid 0.1%, 3 weeks
  remaining calcium levofolinate content compared with the initial value (100): 89.3
[2]; ascorbic acid 0.1%
  calcium levofolinate content, Initial value (100): 100
[2]; ascorbic acid 0.2%, 1 month
  remaining calcium levofolinate content compared with the initial value (100): 83.4
[2]; ascorbic acid 0.2%, 1 week
  remaining calcium levofolinate content compared with the initial value (100): 96.6
[2]; ascorbic acid 0.2%, 2 weeks
  remaining calcium levofolinate content compared with the initial value (100): 91.5
[2]; ascorbic acid 0.2%, 3 weeks
  remaining calcium levofolinate content compared with the initial value (100): 88.6
[2]; ascorbic acid 0.2%
  calcium levofolinate content, Initial value (100): 100
[2]; ascorbic acid 0.3%, 1 month
  remaining calcium levofolinate content compared with the initial value (100): 82.0
[2]; ascorbic acid 0.3%, 1 week
  remaining calcium levofolinate content compared with the initial value (100): 96.1
[2]; ascorbic acid 0.3%, 2 weeks
  remaining calcium levofolinate content compared with the initial value (100): 90.5
[2]; ascorbic acid 0.3%, 3 weeks
  remaining calcium levofolinate content compared with the initial value (100): 87.7
[2]; ascorbic acid 0.3%
  calcium levofolinate content, Initial value (100): 100
[3]
  change of pH value of the aqueous solution during storage: gradually changes to an acid region
